Results reported in patent US10010547B2 (CASCADIAN THERAPEUTICS, INC., priority 2014, dated 2018).
Structures can show the parent of a compound that is named as a salt. Where two headings read alike, the source gives them in different places.

What was measured:
Chk-1 kinase = Chk-1 kinase (Homo sapiens (Human), UniProt O14757); experiment: Chk-1 Kinase Inhibiting Activity (33P-ATP filter assay, CHKtide substrate); format: biochemical; conditions: against Chk-1 kinase; read-out: IC50
Experimental: Chk-1 Kinase Inhibiting Activity
The compounds of the invention were tested for activity against Chk-1 kinase using the materials and protocols set out below.
Base Reaction buffer: 20 mM Hepes (pH 7.5), 10 mM MgCl2, 1 mM EGTA, 0.02% Brij35, 0.02 mg/ml BSA, 0.1 mM Na3VO4, 2 mM DTT, 1% DMSO
*Required cofactors are added individually to each kinase reaction
(i) Prepare indicated substrate in freshly prepared Base Reaction Buffer
(ii) Deliver any required cofactors to the substrate solution above
(iii) Deliver indicated kinase into the substrate solution and gently mix
(iv) Deliver compounds in DMSO into the kinase reaction mixture
(v) Deliver ^33P-ATP (specific activity 0.01 μCi/μl final) into the reaction mixture to initiate the reaction.
(vi) Incubate kinase reaction for 120 minutes at room temperature
(vii) Reactions are spotted onto P81 ion exchange paper (Whatman #3698-915)
(viii) Wash filters extensively in 0.1% phosphoric acid.
(ix) Dry filters and measure counts in scintillation counter
Recombinant full length construct, N-terminal GST tagged, purified from insect cells.
No special measures were taken to activate this kinase.
Final concentration in assay=0.5 nM
Peptide sequence: [[…]]
Final concentration in assay=20 μM
No additional cofactors are added to the reaction mixture
From the results obtained by following the above protocol, the IC50 values against Chk-1 kinase of each of the compounds of Examples 1-153 were determined and these are shown in Table 3.

MIA PaCa-2 cells = experiment: Gemcitabine Combination Cell Assay (Cell Titer Glo); format: cell-based; conditions: for IC50: Homo sapiens; for 10xLS: approximate concentration of Chk1 inhibitor that results in a 10-fold reduction in the IC50 of gemcitabine alone; for 2xLS: approximate concentration of Chk1 inhibitor that results in a two-fold reduction in the IC50 of gemcitabine alone
Experimental: Gemcitabine Combination Cell Assay
Exponentially growing MIA PaCa-2 (ATCC CRL-1420) cells are treated with trypsin to remove cells from the plate surface. Approximately 10,000 cells/well are plated in 96 well plates in RPMI containing 10% fetal bovine serum, 1% sodium pyruvate and 1% L-GlutaMax. Cells are allowed to adhere to the plate surface overnight. Serial half-log dilutions of Chk1 inhibitor test compounds and gemcitabine are made with a final highest concentration of 3000 nM and 100 nM, respectively. Chk1 inhibitors and gemcitabine are combined so that each concentration of Chk1 inhibitor is added to each concentration of gemcitabine. Each drug is also tested as a single agent. Drugs are added to adherent cells (in duplicate) and incubated for 72 h. At 72 h the cells are treated with Promega Cell Titer Glo reagent for approximately 15 minutes. Luminescence (relative light units, RLU) is recorded using a BMG Polarstar Omega plate reader. The single agent concentration that results in a 50% reduction in total signal (IC50) is calculated using PRISM software and a four-parameter non-linear regression curve fit. For combination studies the RLUs are plotted using PRISM on an XY plot with the gemcitabine concentration on the X axis and RLU on the Y axis. The RLU for each concentration of Chk1 inhibitor is plotted as a function of gemcitabine concentration. The IC50 for gemcitabine alone and at each concentration of Chk1 is determined using a four-parameter non-linear regression curve fit. The approximate concentration of Chk1 inhibitor that results in a two and ten-fold reduction in the IC50 of gemcitabine alone is calculated as an indication of synergistic potency.
From the results obtained by following the above protocol, the IC50 values against MIAPaca-2 cells of the Chk1 inhibitor alone (Chk1 IC50), the approximate concentration of Chk1 inhibitor that results in a two-fold (2×LS) and a 10-fold (10×LS) reduction in the IC50 of gemcitabine alone of each of the compounds of Examples 1-154 are shown in Table 4.

[1] = Chk1 inhibitor alone, MIA PaCa-2 cells, 72 h, read-out: Chk1 IC50
[2] = MIA PaCa-2, 72 h, read-out: Chk1 IC50 (nM)

Chain of Chk-1 kinase (O14757 whole entry): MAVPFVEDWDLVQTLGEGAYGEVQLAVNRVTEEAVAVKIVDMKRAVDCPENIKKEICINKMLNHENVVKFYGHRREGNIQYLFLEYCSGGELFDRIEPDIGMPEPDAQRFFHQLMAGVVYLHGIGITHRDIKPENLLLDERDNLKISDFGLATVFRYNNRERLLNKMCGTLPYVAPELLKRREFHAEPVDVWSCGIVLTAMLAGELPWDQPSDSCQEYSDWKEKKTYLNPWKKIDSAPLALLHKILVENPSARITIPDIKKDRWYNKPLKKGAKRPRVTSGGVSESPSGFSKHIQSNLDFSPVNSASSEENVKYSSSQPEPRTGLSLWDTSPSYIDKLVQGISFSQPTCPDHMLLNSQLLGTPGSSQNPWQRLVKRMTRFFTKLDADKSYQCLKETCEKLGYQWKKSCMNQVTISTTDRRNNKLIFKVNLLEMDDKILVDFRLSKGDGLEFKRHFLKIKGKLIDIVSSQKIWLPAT

| Compound | IC50 (Chk-1 kinase) [nM] | IC50 (MIA PaCa-2 cells; [1]) [nM] | 10xLS (MIA PaCa-2 cells; MIA PaCa-2 cells, 72 h) [nM] | 2xLS (MIA PaCa-2 cells; MIA PaCa-2 cells, 72 h) [nM] | IC50 (MIA PaCa-2 cells; [2]) [nM] |
| --- | --- | --- | --- | --- | --- |
| CN1CCC(c2ccc(-c3cc(Nc4cnc(C#N)cn4)n[nH]3)c(F)c2)CC1 [Example 21, 5-[[5-[2-fluoro-4-(1-methyl-4-piperidyl)phenyl]-1H-pyrazol-3-yl]amino]pyrazine-2-carbonitrile] | 2.4 | 3180 | 1000 | 100 | – |
| COc1cc(N2CCN(C)CC2)ccc1-c1cc(Nc2cnc(C#N)cn2)n[nH]1 [Example 22, 5-[[5-[2-methoxy-4-(4-methylpiperazin-1-yl)phenyl]-1H-pyrazol-3-yl]amino]pyrazine-2-carbonitrile hydrochloride] | 0.026 | – | <30 | <3 | 88 |
| COc1cc(N2CCCN(C)CC2)ccc1-c1cc(Nc2cnc(C#N)cn2)n[nH]1 [Example 23, 5-[[5-[2-methoxy-4-(4-methyl-1,4-diazepan-1-yl)phenyl]-1H-pyrazol-3-yl]amino]pyrazine-2-carbonitrile] | 0.12 | 266 | <100 | <3 | – |
| COc1cc(C2CCN(C)CC2)ccc1-c1cc(Nc2ccc(C#N)nc2)n[nH]1.Cl [Example 24, 5-[[5-[2-methoxy-4-(1-methyl-4-piperidyl)phenyl]-1H-pyrazol-3-yl]amino]pyridine-2-carbonitrile hydrochloride] | 0.24 | 934 | 300 | 10 | – |
| COc1cc(C2CCN(C)CC2)ccc1-c1cc(Nc2ccc(C#N)cn2)n[nH]1 [Example 25, 6-[[5-[2-methoxy-4-(1-methyl-4-piperidyl)phenyl]-1H-pyrazol-3-yl]amino]pyridine-3-carbonitrile] | 14 | > 3000 | >3000 | 300 | – |
| COc1cc(C2CCN(C)CC2)ccc1-c1cc(Nc2cnc(C)cn2)n[nH]1 [Example 26, N-[5-[2-methoxy-4-(1-methyl-4-piperidyl)phenyl]-1H-pyrazol-3-yl]-5-methyl-pyrazin-2-amine] | 10 | 5580 | >3000 | 1000 | – |
| CN1CCC(c2ccc(-c3cc(Nc4cnc(C#N)cn4)n[nH]3)cc2)CC1 [Example 27, 5-[[5-[4-(1-methyl-4-piperidyl)phenyl]-1H-pyrazol-3-yl]amino]pyrazine-2-carbonitrile] | 3.6 | 5750 | 3000 | 300 | – |
| COc1cc(OC2CCN(C)CC2)ccc1-c1cc(Nc2cnc(C#N)cn2)n[nH]1 [Example 28, 5-[[5-[2-methoxy-4-[(1-methyl-4-piperidyl)oxy]phenyl]-1H-pyrazol-3-yl]amino]pyrazine-2-carbonitrile hydrochloride] | 0.13 | – | <100 | <3 | 279 |
| COc1cc(OCC2CCN(C)CC2)ccc1-c1cc(Nc2cnc(C#N)cn2)n[nH]1 [Example 29, 5-[[5-[2-methoxy-4-[(1-methyl-4-piperidyl)methoxy]phenyl]-1H-pyrazol-3-yl]amino]pyrazine-2-carbonitrile] | 0.068 | 176 | 100 | 3 | – |
| COc1cc(C2CCN(C)CC2)ccc1-c1cc(Nc2ccc(C#N)c(F)c2)n[nH]1 [Example 30, 2-fluoro-4-[[5-[2-methoxy-4-(1-methyl-4-piperidyl)phenyl]-1H-pyrazol-3-yl]amino]benzonitrile] | 17 | > 3000 | >3000 | 1000 | – |
